These results are taken from a melting point compilation (Tetko et al.; mined from patent text by program, amines drawn as free bases though some values may be those of a salt).

The structures appear in SMILES notation. Some results are limits rather than exact numbers.

`Clc1[nH]c2ccccc2c1Sc1ccccc1` showed a melting point of 98 to 99 °C.

On to `Cc1cc(CN2CCC(N(C)S(=O)(=O)c3ccc(Nc4nccc(Nc5ccc(F)c(F)c5)n4)cc3)CC2)no1`, for which the melting point fell in the range of 204 to 206 °C.

In turn, `CS(=O)(=O)c1ccc(-c2cnn(CC(=O)c3ccccc3)c(=O)c2-c2ccc(F)cc2)cc1` returned a melting point of 228 to 230 °C.

In the case of `O=C(CCl)c1ccc2c(c1)[C@H](NC(=O)C(F)(F)F)CC2`, the melting point is 166 to 167 °C.

`COc1cc2c(c(Cl)c1Cl)C(=O)C(C)(c1cccs1)C2` (stereo not drawn) registered a melting point of 145 to 146 °C.

As to `CC(=O)c1cccc(N2CCN(CCC3CCC(NC(=O)CC#N)CC3)CC2)c1` (stereo not drawn), the melting point is 160 °C.

As to `CC(=O)[C@H]1CC[C@H]2[C@@H]3CCC4=C/C(=N/OC(=O)[C@@H](NC(=O)OC(C)(C)C)C(C)C)CC[C@]4(C)[C@H]3CC[C@]12C`, the melting point fell in the range of 147 to 149 °C.

For `CC1=CCCC2C1(C)CCC(C)C2(C)Cc1cc(O)ccc1O` (stereo not drawn), the melting point fell in the range of 146 to 148 °C.

In the case of `CN1C(=O)C2C3C=CC(C3)C2(c2ccc3c(c2)CCCC3)C1=O` (stereo not drawn), the melting point is 78 to 86 °C.

`O=S(=O)(Nc1ccccc1COc1cccc2cccnc12)c1ccc(F)cc1` gave a melting point of 121 to 122 °C.

`CCOC(=O)C(=NO)c1cccc(Br)c1` gave a melting point of 113 to 114 °C.

For the molecule `COc1ccc(-c2ccncc2)cc1-c1cccc([N+](=O)[O-])c1`, the melting point was 145 to 150 °C.

`CCOC(=O)N1CCN(c2ccc(C3=NNC(=O)CC3C)cc2Cl)CC1` (stereo not drawn) gave a melting point of 154 to 156 °C.

`CC(C)(C)c1cc(/C=C/C(=O)CC(=O)/C=C/c2cc(C(C)(C)C)c(O)c(C(C)(C)C)c2)cc(C(C)(C)C)c1O` came in with a melting point of 192 to 196 °C.

`CN(C)S(=O)(=O)c1cc2c(c(C(=O)Cl)c1)OCCO2`: the melting point lay in the range of 160 to 162 °C.

`COc1cc(-c2ccc3cnc(Nc4ccc(C5CCN(CC(N)=O)CC5)cc4)nn23)c(OC)nn1` registered a melting point of 249 to 251 °C.

As to `CSc1ccccc1-c1cc2c(ccn2C)c2c1C(=O)NC2=O`, the melting point was 272 to 274 °C.

In turn, `CCOC(=O)Cn1ncc(-c2ccc(OC)cc2)c1-c1ccccc1` came in with a melting point of 81 to 84 °C.

As for `CCC(=O)Oc1c(OC)cc(C=CC(=O)Nc2cnc3c(C)cc(C)cc3c2-c2ccccc2Cl)cc1OC`, the melting point lay within 235 to 236 °C.

`COc1ccc(C(=CC(=O)N2CCOCC2)c2ccc(NC(=O)NS(=O)(=O)c3ccc(C)cc3)cc2)cc1OC` displayed a melting point of 220 to 225 °C.

In the case of `COc1cc2onc(C3CCN(CCCn4c(=O)[nH]c5ccccc54)CC3)c2cc1OC`, the melting point was in the range of 147 to 149 °C.

`C=CCP(=O)(c1ccccc1)c1ccccc1` yielded a melting point of 94 to 96 °C.

The molecule `CSc1ncccc1C1C(C(=O)OC(C)C)=C(C)NC(=S)N1C(=O)OC(C)C` (stereo not drawn) showed a melting point of 119 to 121 °C.

In turn, `CC1(C)Oc2ccc(I)cc2[C@@H](N2Cc3ccccc3C2=O)[C@@H]1O` (relative stereo) yielded a melting point of 224 to 228 °C.

With `CC1(C)CCC(C)(C)C(=O)C1=O`, the melting point is 109 to 111 °C.

Molecule `COc1ccc(Nc2nn3c(-c4ccc(OC)cc4)nnc3c3ccccc23)cc1` registered a melting point of 301 to 304 °C.

In turn, `CC(C)c1c(C(=O)Nc2ccccc2)c(-c2ccccc2)c(-c2ccc(F)cc2)n1CC[C@@H]1C[C@H](CC(=O)OC(C)(C)C)OC(C)(C)O1` returned a melting point of 140 to 142 °C.

In turn, `CON=Cc1cc([N+](=O)[O-])c(Cl)cc1Cl` displayed a melting point of 129 to 132 °C.

As for `CN(c1cc(OC(F)(F)F)cc2cc(C3=NCC(CC(=O)O)S3)[nH]c12)S(=O)(=O)c1cccs1` (stereo not drawn), the melting point was 225 to 227 °C.

In the case of `COc1cc2onc(C3CCN(c4c(C)[nH]c5ccccc45)CC3)c2cc1OC`, the melting point fell in the range of 176 to 178 °C.

Take `O=C(NCCCCCCCCc1ccccc1)c1cc(-c2cccc(Cl)c2)c(OCCO)c(-c2cccc(Cl)c2)c1`: the melting point lay in the range of 165 to 167 °C.

Molecule `COc1cccc(/C=C/C2=CCN(Cc3nc4ccccc4[nH]3)CC2)c1` returned a melting point of 202 to 204 °C.

The molecule `CN1CCC(=C2c3ccccc3[C@@H](O)[C@@H](O)c3ccccc32)CC1` showed a melting point of 248 to 255 °C.

In the case of `CCCCCCCCCCCCCCCCCC(=O)N1CCCCc2nc(-c3ccccc3)sc21`, the melting point fell in the range of 38 to 40 °C.

In the case of `O=C1N(N2CCOCC2)c2ccccc2C1(O)Cc1ccncc1` (stereo not drawn), the melting point was 198 to 200 °C.

`COC(C)(C)O[C@H]1C(=O)N[C@H]1c1ccccc1` displayed a melting point of 136 to 137 °C.

Turning to `Ic1c2n(c3ccc(OC4CC4)cc13)CCC2`, the melting point lay within 104 to 105 °C.

Molecule `COC(=O)c1cc(-c2ccc3c(c2)c2cc(-c4ccc(Cl)cc4Cl)c(=O)n(C)c2n3C)[nH]n1` registered a melting point of 290 to 292 °C.

Molecule `OCc1cc2c(F)ccc(Cl)c2s1` had a melting point of 63 to 64 °C.

Molecule `O=C1Nc2ccc(Cl)cc2C1(O)c1cccc2c1OCO2` (stereo not drawn) came in with a melting point of 271 °C.

`Nc1ccc(C2CCN(c3ccncc3)CC2)cc1` returned a melting point of 196 to 197 °C.

For `Cn1c(C(F)(F)F)ccc(-c2cc(S)c(Cl)cc2F)c1=O`, the melting point was in the range of 141 to 142 °C.

Molecule `CCc1cc(Br)c2c(c1)NC(=O)C2=O` came in with a melting point of 219 to 220 °C.

In the case of `COc1cc2c(cc1OC)CCC(/C=C/C(=N)NO)=C2`, the melting point lay within 199 to 203 °C.

The molecule `COc1ccc(C(=O)C=Cc2cc(O)c(O)c([N+](=O)[O-])c2)cc1` yielded a melting point of 222 to 228 °C.

Take `CCCCCC(=O)c1cccc(NC(=O)c2ccc(Cl)cc2O)c1`: the melting point lay within 134 to 136 °C.

With `COc1cc(C(C)(C)C)c2c(c1)C(C)(C)C(=O)O2`, the melting point lay within 63.5 to 64.5 °C.

Turning to `CC(=O)C1CCC(=O)N1C(C)=O` (stereo not drawn), the melting point turned out to be 62 °C.

In turn, `COC(=O)C(=CNc1ncnc2ccc(NC(=O)CC(C)(C)C)cc12)C(=O)OC` showed a melting point of 196 to 198 °C.

`Cc1ccc(S(=O)(=O)NCCC2CCC(CC(=O)O)CC2)cc1` (stereo not drawn) came in with a melting point of 104 to 105 °C.

Turning to `Brc1cccc(-c2cn([C@H]3CN4CCC3CC4)nn2)c1`, the melting point was found to be 188 °C.

In the case of `O=C(O)c1sc(-c2cccc(Cl)c2)nc1O`, the melting point was in the range of 107 to 108 °C.

Molecule `CSc1c(C#N)nn(-c2c(Cl)cc(C(F)(F)F)cc2Cl)c1N` had a melting point of 147 to 148 °C.

In the case of `COc1ccc2c(Nc3ccc(C)c(O)c3)c(C#N)cnc2c1`, the melting point is greater than 250 °C.

Take `O=C1Nc2ccccc2N(C(=O)CN2CCCCC2CN2CCCC2)c2ccccc21` (stereo not drawn): the melting point lay in the range of 199 to 201 °C.

The molecule `CC1(C)CCC(C)(C)c2cc(C=O)c(Br)cc21` yielded a melting point of 114 °C.

`COc1ccc(C(=O)N(C(=O)c2ccc(OC)cc2)c2nc3ccc(N4CCN(C)CC4)cc3c(NCc3ccccc3)c2C#N)cc1` gave a melting point of 176 °C.

`CCN(CC)CCCNc1nnc(C)c2c1cc1n2CCCC1` gave a melting point of 171 to 172 °C.

With `CCOC(=O)C1=C(COCc2nnn(CCN)n2)NC(C)=C(C(=O)OC)C1c1ccccc1Cl` (stereo not drawn), the melting point lay in the range of 126 to 127 °C.

`CN1C(=O)CC[C@]2(C)c3ccc(-c4ccc(C(C)(C)C)cc4)cc3CC[C@@H]12` gave a melting point of 141 to 147 °C.

Molecule `COc1ccccc1CNc1ccc2cc(Nc3ncccc3C)ccc2n1` returned a melting point of 163 °C.

`CCC(CC)c1ccc(CN2CCCC2)c2nc(Oc3c(C)cc(Cl)cc3Cl)n(C)c12` displayed a melting point of 107 to 108 °C.

The molecule `COC(=O)Cc1ccc(-c2nc3ccccc3o2)cc1` displayed a melting point of 109 to 112 °C.

The molecule `CCOC(=O)C(=O)Nc1cccc(OCc2ccccc2)c1C(N)=O` yielded a melting point of 151 to 153 °C.

`CC(C)Cn1c(=O)n(C)c(=O)c2c(S(=O)(=O)N3CC[C@@H](O)C3)c(Cc3cccnc3)sc21` displayed a melting point of 161 to 162 °C.

Molecule `CC(C)(C)NS(=O)(=O)c1ccccc1CCOS(C)(=O)=O` had a melting point of 106 to 108 °C.

The molecule `O=C(O)Cn1c(=O)sc2cc(-c3ccccc3)c(Cl)cc21` displayed a melting point of 262 to 266 °C.

`COc1nc2cc(Cl)c(Cl)c(C(=O)O)c2nc1OC` returned a melting point of 230 to 232 °C.

`CCN1CCN(CC)c2cc(N)ccc2C1=O` gave a melting point of 140 to 141 °C.

`COc1cc2nc(N3CCC(=O)CC3)nc(N)c2cc1OC` displayed a melting point of 228 to 230 °C.

In turn, `NC(=O)OCC1COC(C(F)(F)F)(C(F)(F)F)O1` (stereo not drawn) gave a melting point of 52 to 54 °C.

In the case of `O=[N+]([O-])c1cnccc1Oc1ccc2[nH]ccc2c1`, the melting point fell in the range of 182 to 184 °C.

In the case of `CCOC(=O)c1ccccc1NC(=O)C(F)(F)F`, the melting point is 78 °C.

Molecule `O=C(O)COc1ccc(SCc2cc(-c3ccccc3Cl)on2)c2c1CCC2` gave a melting point of 161 to 162 °C.

With `COc1cc(C(C)C)c(NC(=O)CN2CCN(CCCSc3nc4ccccc4o3)CC2)c(C(C)C)c1`, the melting point is 129 to 130 °C.

With `CC(C)(C)OC(=O)NC1CC(=O)C1`, the melting point fell in the range of 75 to 78 °C.

The molecule `N#CC(=C(Nc1ccc2c(c1)OCO2)NC1CCC1)S(=O)(=O)c1ccc(Cl)cc1` gave a melting point of 190 °C.

In the case of `CC(=O)OCCCC(=C(c1ccccc1)c1ccccc1)c1ccccc1`, the melting point lay within 80 to 81 °C.

The molecule `COc1c(C)c(=O)oc2cc(-c3ccc(C(C)C)cc3)ccc12` showed a melting point of 129 °C.

Molecule `COc1ccc2c(c1)c(C)cn2CCCCCC(=O)O` displayed a melting point of 134 to 137 °C.

Molecule `CS(=O)(=O)c1ccc(-c2cc(C=O)cn2-c2ccc(F)cc2)cc1` came in with a melting point of 98 to 100 °C.

Molecule `CC(C)(C)OC(=O)NCc1ccc(-c2ccc(O)cc2)cc1` came in with a melting point of 147 to 149 °C.

`COC=C(C(=O)OC)N(C)N1CSC(Br)=C1c1ccc(Br)cc1` had a melting point of 112 °C.

With `CCOC(=O)c1cn(C2CC2)c2nc(N3C[C@@H](CNC(C)=O)[C@@H](Cl)C3)c(F)cc2c1=O` (relative stereo), the melting point was 213 to 214 °C.

Regarding `Cc1cc(-n2cc(-c3ccc(S(C)=O)cc3)nc2C)cc2ccc(=O)[nH]c12` (stereo not drawn), the melting point is 313 to 315 °C.

As for `CCCCOC(CCN)(c1ccccc1)c1ccccc1`, the melting point lay in the range of 50 to 54 °C.

`CC(=O)N1CCCC1CN1C(=O)C2(COc3cc4c(cc32)CCO4)c2ccccc21` (stereo not drawn) returned a melting point of 103 to 108 °C.

For `CC1NC(=O)NN=C1c1ccccc1OCc1ccccc1` (stereo not drawn), the melting point fell in the range of 200 to 203 °C.

A word on the melting point: it is the temperature, or range, at which the solid turns liquid.
